According to patent EP0495091B1 (Metabasis Therapeutics Inc., priority 1990, dated 1992):
Values joined by “and” are separate entries in the source; they are usually repeats but may differ in a detail not shown here. Equal values may be shown once. Read-outs that look alike come from different tables or passages of the source.

Legend:
Isolated rat hearts = experiment: Improved functional recovery in isolated hearts (Langendorff, post-ischemic LVDP); conditions: 30 min ischemia, 30 min reperfusion, number in brackets = hearts
Method: Isolated rat hearts were cannulated via the ascending aorta and attached to a perfusion apparatus according to the method of Langendorff. The hearts were perfused at a constant pressure of 100 cm of H2O with a modified Krebs-Henseleit buffer (pH 7.4) at 37°C. As a measure of heart function, left ventricular developed pressure (LVDP) was continuously monitored. Following equilibration of the hearts for a period of 30 min., the hearts were subjected to reduced flow i.e. ischemia, by reducing the pressure to 10 cm of H2O for 30 min. Flow was then restored by returning the pressure to its original level (100 cm of H2O) for a further 30 min.

[1] = tested on: longitudinal muscle from the guinea pig ileum; experiment: Inhibition of stimulated contraction in isolated ileum; conditions: concentration which inhibited electrically stimulated contraction by 50%, read-out: IC50
Method: Parallel platinum electrodes were used to deliver electrical current at 1 minute intervals at a voltage adequate to induce contraction of 90% of maximal.

ischemic rat hearts = experiment: Rat heart ischemia model, tissue adenosine levels; format: in vivo, rats; conditions: intraperitoneal injection, hearts excised after 60 minutes, incubated 60 minutes at 37°C, HPLC
Method: Male rats were injected intraperitonealy with either the AICA riboside analog, AICA riboside or saline, as a control. After 60 minutes, the hearts were excised and incubated at 37°C for a further 60 minutes. Tissue extracts were prepared and analyzed for adenosine by high performance liquid chromatography (HPLC). […]

[2] = tested on: coronary endothelial cells; experiment: Inhibition of adenosine utilization in cell culture; format: cell-based; conditions: 1 µM [3H] adenosine, 15 minutes
Method: Inhibition of adenosine utilization was determined by measuring the concentration of extracellular adenosine by scintillation counting following separation by thin layer chromatography (TLC).

[3] = molecular target: T1, NBTI-specific adenosine transport site (Homo sapiens, UniProt Q99808); experiment: [3H]-NBTI binding assay; conditions: 50% displacement of bound [3H]-NBTI (0.5 nM); neuronal membrane protein, 30 minutes, pH 7.4, room temperature; read-out: ED50 (the source's name)
T1 construct: incubated for 30 minutes with 0.5 mg neuronal membrane protein together with 0.5 nM [^3H]-NBTI; from tissue
T1 sequence (Q99808 1-456): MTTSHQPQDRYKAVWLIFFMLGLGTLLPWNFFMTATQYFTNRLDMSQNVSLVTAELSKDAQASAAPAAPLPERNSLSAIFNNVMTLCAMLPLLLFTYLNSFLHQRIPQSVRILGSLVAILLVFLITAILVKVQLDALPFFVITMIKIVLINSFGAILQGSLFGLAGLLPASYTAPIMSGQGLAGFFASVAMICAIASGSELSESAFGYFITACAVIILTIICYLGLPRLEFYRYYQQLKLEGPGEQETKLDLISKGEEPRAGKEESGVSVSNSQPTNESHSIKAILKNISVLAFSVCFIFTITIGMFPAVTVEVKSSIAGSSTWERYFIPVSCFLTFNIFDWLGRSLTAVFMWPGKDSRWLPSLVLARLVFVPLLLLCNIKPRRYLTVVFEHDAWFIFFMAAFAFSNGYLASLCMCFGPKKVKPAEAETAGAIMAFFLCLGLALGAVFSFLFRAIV
Method: Increasing concentrations of the test compounds were incubated for 30 minutes with 0.5 mg neuronal membrane protein together with 0.5 nM [^3H]-NBTI in a Tris buffer (pH 7.4) at room temperature. The assays were quenched and membranes collected by rapid filtration. Filters were then solubilized and radioactivity determined by scintillation counting.

[4] = tested on: coronary endothelial cells; experiment: Adenosine release from isolated cells under net ATP breakdown; format: cell-based; conditions: 50 µM test compound
Method: In this experimental model the cells were treated with 50 µM of the test compound and incubated for 16 hours at 37°C. Cells were then washed with phosphate-buffered saline and resuspended in standard culture medium containing no glucose (to inhibit glycolysis), 50 µM antimycin A (to inhibit oxidative phosphorylation) and 20 µM deoxycoformycin (to inhibit adenosine utilization by adenosine deaminase). This treatment was designed to simulate ischemic condition by inducing net ATP breakdown. Media was then processed for HPLC.

[5] = tested on: platelet aggregation in human whole blood; experiment: Inhibition of platelet aggregation in human whole blood; format: cell-based; conditions: 10 minutes at 37°C, 10 µM adenosine added 5 minutes before, ADP (6-25 µM) induced, impedance technique
Method: Whole blood was drawn from healthy donors and collected in 0.1 vol. of sodium citrate to prevent coagulation. Platelet aggregation was measured by the impedance technique using a Whole Blood Aggregometer.

[6] = Oral bioavailability and half-life in fasted adult beagles; conditions: dog, in vivo
Method: Heparinized blood and urine were collected at selected intervals over 24 hours. Each sample was chilled, centrifuged at 4°C and frozen prior to HPLC analysis.

male Mongolian gerbils = experiment: Experimental stroke model (gerbil brain ischemia); format: in vivo; conditions: pretreatment with 500 mg/kg; bilateral carotid occlusion for 5 minutes; histology after seven days
Method: In this test, male Mongolian gerbils were anesthetized with 2-3% halothane in N20:02 and the common carotid arteries exposed. Ischemia was then induced by bilateral occlusion of both common carotid arteries for 5 minutes. Seven days following the ischemic insult, brains were removed and processed for histology.

[7] = cited from earlier work
[8] = molecular target: T2, calf intestinal musosa adenosine deaminase (Bos taurus, UniProt P56658); experiment: Adenosine deaminase activity inhibition; format: biochemical; conditions: 80 µM adenosine, pH 7.0, 10 minutes at 37°C
T2 construct: calf intestinal musosa adenosine deaminase; from tissue; host or cells: calf intestinal mucosa
T2 sequence (P56658 1-363): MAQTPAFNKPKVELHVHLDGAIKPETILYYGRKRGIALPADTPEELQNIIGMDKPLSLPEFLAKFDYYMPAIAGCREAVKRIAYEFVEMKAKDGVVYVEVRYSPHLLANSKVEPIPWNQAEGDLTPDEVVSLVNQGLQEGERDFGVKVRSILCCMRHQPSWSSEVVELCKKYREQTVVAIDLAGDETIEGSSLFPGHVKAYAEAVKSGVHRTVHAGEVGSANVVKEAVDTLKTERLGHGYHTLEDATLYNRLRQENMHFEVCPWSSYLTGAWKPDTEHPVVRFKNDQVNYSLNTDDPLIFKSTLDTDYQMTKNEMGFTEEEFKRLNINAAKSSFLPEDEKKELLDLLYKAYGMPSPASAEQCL
Method: Different concentrations of the test compounds were incubated in the assay mixture for 10 minutes at 37°C. The reaction was monitored continuously for oxidation of NADH from the change in absorbance at 340 nm.

Anesthetized male dogs = format: in vivo; conditions: n = 6
Method: Anesthetized male dogs were instrumented to measure regional myocardial wall thickening during right atrial pacing in the presence of a stenosis of the left anterior descending artery (Young & Mullane Am. J. Physiol. in press (1991)). In Table XIA, the effects on wall thickening and arterial pressure of six repeated episodes of pacing in animals treated with a continuous IV infusion of 50 µg/kg/min of the test compound administered post-pace #1 are compared with saline-treated control animals. […]

**Q.** For `NC(=O)c1ncn([C@@H]2O[C@H](CO)[C@@H](O)[C@H]2O)c1N` [Compound No. 1, 5-amino-1-beta-D-ribofuranosylimidazole-4-carboxamide, reference compound], which “Function Recovery % Baseline LVDP (% of hearts)” value (Isolated rat hearts; 5 µM in perfusion buffer) is on record?
**A.** 64.2±1.5 (6) %

**Q.** And the “Function Recovery % Baseline LVDP (% of hearts)” value (Isolated rat hearts; 20 µM in perfusion buffer)?
**A.** 79.4±1.3 (34) %

**Q.** What about the IC50 ([1]; Cavia porcellus) of the same compound?
**A.** > 1000 µM

**Q.** And the “Tissue Adenosine Levels (% Increase vs. Saline)” value (ischemic rat hearts)?
**A.** 30%

**Q.** And the inhibition at 5 µM ([2]; Endothelial cell, 5 µM test compound, read-out: Inhibition of Adenosine Utilization (%))?
**A.** 5 ± 2%

**Q.** What about the inhibition at 50 µM ([2]; Endothelial cell, 50 µM test compound, read-out: Inhibition of Adenosine Utilization (%)) of the same compound?
**A.** 10 ± 1%

**Q.** What about the EC50 [3] of the same compound?
**A.** > 1000 µM

**Q.** What about the “Extracellular Adenosine Levels” value ([4]; 16 hours at 37°C, then no glucose, antimycin A, deoxycoformycin) of the same compound?
**A.** 1.64 ± 0.12 µM

**Q.** What about the “Extracellular Adenosine Increase (%)” value ([4]; 16 hours, increase versus control) of the same compound?
**A.** 15.5%

**Q.** And the IC50 ([5]; Homo sapiens, Platelet)?
**A.** 2700 µM

**Q.** What about the bioavailability ([6]; beagle, oral, fasted adult beagles, 10 mg/kg IV bolus and 20 mg/kg solution via stomach tube, read-out: Absolute Oral Bioavailability %) of the same compound?
**A.** 8%

**Q.** What about the half-life ([6]; beagle, fasted adult beagles) of the same compound?
**A.** 21 min

**Q.** Which “Function Recovery % Baseline LVDP (% of hearts)” value (Isolated rat hearts; 5 µM in perfusion buffer) does the source give for `Nc1c(C(=O)NC2CCCC2)ncn1[C@@H]1O[C@H](CO)[C@@H](O)[C@H]1O` [Compound No. 10, 5-Amino-1-beta-D-ribofuranosylimidazole-4-N-(cyclopentyl)carboxamide] here?
**A.** 83.7±0.7 (6) %

**Q.** What about the “Function Recovery % Baseline LVDP (% of hearts)” value (Isolated rat hearts; 20 µM in perfusion buffer) of the same compound?
**A.** 84.5±3.5 (2) %

**Q.** What about the “Tissue Adenosine Levels (% Increase vs. Saline)” value (ischemic rat hearts; listed as 10 (1-186)) of the same compound?
**A.** 79% and 68%

**Q.** And the EC50 [3]?
**A.** 350 µM

**Q.** What about the “effect in a gerbil model of brain ischemia (hippocampal pyramidal cell survival)” value (male Mongolian gerbils) of the same compound?
**A.** protective effects

**Q.** For `Nc1ncnc2c1ncn2[C@@H]1O[C@H](CO)[C@@H](O)[C@H]1O` [adenosine], which “half life of adenosine in blood” value [7] is on record?
**A.** < 0.167 min

**Q.** With `Nc1c(C(=O)NN2CCCCC2)ncn1[C@@H]1O[C@H](CO)[C@@H](O)[C@H]1O` [Compound No. 36, 5-amino-4-(1-piperidinocarbamoyl)-1-β-D-ribofuranosylimidazole] as the compound, how does the “Tissue Adenosine Levels (% Increase vs. Saline)” value (ischemic rat hearts) read?
**A.** 34%

**Q.** Which results are given for `Nc1c(C(=O)NC2CC2)ncn1[C@@H]1O[C@H](CO)[C@@H](O)[C@H]1O` [Compound No. 12, 5-Amino-1-beta-D-ribofuranosylimidazole-4-N-(cyclopropyl)carboxamide]?
**A.** IC50 [1]: 400 µM; Tissue Adenosine Levels (% Increase vs. Saline) (ischemic rat hearts): 29%

**Q.** For `CCO[C@@H]1[C@H](O)[C@@H](CO)O[C@H]1n1cnc(C(N)=O)c1N` [Compound No. 34, 5-amino-1-(2-O-ethyl-β-D-ribofuranosyl)-4-imidazole carboxamide], which IC50 [8] is on record?
**A.** 510 µM

**Q.** Which “Function Recovery % Baseline LVDP (% of hearts)” value (Isolated rat hearts; 5 µM in perfusion buffer) does the source give for `Cl.NC[C@H]1O[C@@H](n2cnc(C(=O)NCc3ccc(Cl)cc3)c2N)[C@H](O)[C@@H]1O` [Compound No. 53, 5-Amino-1-(5-amino-5-deoxy-β-D-ribofuranosyl)imidazole-4-N-[(4-chlorophenyl)methyl]carboxamide Hydrochloride] here?
**A.** 85.6±1.8 (10) %

**Q.** And the IC50 [1]?
**A.** 70 µM

**Q.** What about the “Inhibition of Adenosine Utilization (%)” value ([2]; 5 µM test compound) of the same compound?
**A.** 34 ± 4%

**Q.** And the “Inhibition of Adenosine Utilization (%)” value ([2]; 50 µM test compound)?
**A.** 58 ± 2%

**Q.** What about the EC50 [3] of the same compound?
**A.** ~100 µM

**Q.** What about the IC50 [5] of the same compound?
**A.** 150 µM

**Q.** What about the “Half Life” value [6] of the same compound?
**A.** 337 min

**Q.** What about the “Absolute Oral Bioavailability %” value ([6]; po) of the same compound?
**A.** 53 (1-468) 32%

**Q.** And the “% of NON-ISCHEMIC WALL THICKENING” value (Anesthetized male dogs; Pace # 1 (infusion started post-pace #1))?
**A.** 49.5 ± 6.5%

**Q.** What about the “% of NON-ISCHEMIC WALL THICKENING” value (Anesthetized male dogs; Pace # 2, continuous IV infusion of 50 µg/kg/min) of the same compound?
**A.** 46.7 ± 7.0%

**Q.** And the “% of NON-ISCHEMIC WALL THICKENING” value (Anesthetized male dogs; Pace # 3, continuous IV infusion of 50 µg/kg/min)?
**A.** 54.2 ± 9.4 %

**Q.** What about the “% of NON-ISCHEMIC WALL THICKENING” value (Anesthetized male dogs; Pace # 4, continuous IV infusion of 50 µg/kg/min) of the same compound?
**A.** 48.1 ± 7.6 %

**Q.** And the “% of NON-ISCHEMIC WALL THICKENING” value (Anesthetized male dogs; Pace # 5, continuous IV infusion of 50 µg/kg/min)?
**A.** 47.5 ± 8.2 %

**Q.** And the “% of NON-ISCHEMIC WALL THICKENING” value (Anesthetized male dogs; Pace # 6, continuous IV infusion of 50 µg/kg/min)?
**A.** 42.1 ± 7.0 %

**Q.** For `Nc1c(C(=O)NCc2ccccc2)ncn1[C@@H]1O[C@H](CO)[C@@H](O)[C@H]1O` [Compound No. 11, 5-Amino-1-beta-D-ribofuranosylimidazole-4-N-(benzyl)carboxamide], which “Function Recovery % Baseline LVDP (% of hearts)” value (Isolated rat hearts; 5 µM in perfusion buffer) is on record?
**A.** 77.2±5.8 (7) %

**Q.** And the “Function Recovery % Baseline LVDP (% of hearts)” value (Isolated rat hearts; 20 µM in perfusion buffer)?
**A.** 85.7±6.2 (3) %

**Q.** What about the IC50 [1] of the same compound?
**A.** 200 µM

**Q.** What about the “Tissue Adenosine Levels (% Increase vs. Saline)” value (ischemic rat hearts; listed as 11 (1-226)) of the same compound?
**A.** 53% and 45%

**Q.** And the “effect in a gerbil model of brain ischemia (hippocampal pyramidal cell survival)” value (male Mongolian gerbils)?
**A.** protective effects

**Q.** Which IC50 [8] does the source give for `CO[C@@H]1[C@H](O)[C@@H](CO)O[C@H]1n1cnc(C(N)=O)c1N` [Compound No. 20, 5-Amino-1-(2-O-methyl-β-D-ribofuranosyl)-imidazole-4-carboxamide] here?
**A.** 1400 µM
